Assay [1] concerns Collectotrichum graminicola. Kind of assay: Fungal growth inhibition assay, Collectotrichum graminicola. Conditions: Colletotrichum graminicola, 48 hours, read-out: C. graminicola % growth inhibition at 48 hours. It counts as cell-based. The procedure: (§1) Spores were isolated from previously sub-cultured plates of Botrytis cinerea, Phytophthora capsici, Fusarium moniliforme, Fusarium viguliforme, Collectotrichum graminicola, and Diplodia maydis. All spores were filtered and collected in a sterile glass bowl to isolate the spores from the mycelia. The isolation and sub-culture plate condition for each pathogen is described below.
Spore isolation for C. graminicola: A 1-2 week old oatmeal agar (pre-mix) plate was removed from 26° C. incubator with a light/dark 12 hour cycle and the mycelia were treated with 10-15 ml of filter sterilized distilled water. The mycelia were scraped to re-suspend the spores. The spores were then collected in a sterile filter bowl containing a piece of sterile cheesecloth and poured into a conical tube.
(§2) After spore isolation, pathogen spores were counted on a hemocytometer to calculate the spores/ml. In 17% V8 liquid media containing 3 g/L CaCO3, isolated spores were diluted to individual concentrations based on the growth curves at 48 hours of each pathogen. The spore concentrations for each pathogen were as follows: B. cinerea—10,000 sp/ml; P. capsici—300 sp/ml; F. monliforme—500 sp/ml; F. virguliforme—500 sp/ml; C. graminicola—3,000 sp/ml; and D. maydis—3,000 sp/ml.
(§3) Chemistry stocks were dissolved in DMSO at 2.5 mg/ml. Chemistry was diluted in a 96-well stock plate in five-fold dilutions to obtain a final concentration of 50, 10, and 2 ppm in vitro. The final concentration of the positive control after the five-fold dilutions was as follows: soraphen—0.5, 0.1, and 0.02 ppm. Negative controls on each plate included 2% DMSO, water containing spores and media, and a blank for background subtraction.
(§4) In a 96-well plate the spore solution, chemistries, and controls were combined to make the final solution concentrations mentioned above. Upon addition of the chemistry, an OD600 reading was done to assess chemical precipitation. The 96-well plates were incubated in plastic tubs containing wet paper towels under the following conditions, 25° C. in the dark for P. capsici and B. cinerea or 26° C. with light/dark cycle for C. graminicola, D. maydis, F. virguliforme, F. monliforme. Plate readings were repeated at 24 and 48 hrs. Visual ratings were performed at 24 and 48 hrs to check for precipitation and confirm efficacy. Visual and OD600 ratings of the chemistry at 48 hours were compared to the 2% DMSO control to determine the percent of pathogen growth inhibition.

In assay [2] the target is Ustilago maydis acetyl CoA carboxylase (ACCase) (Mycosarcoma maydis (Ustilago maydis), UniProt A0A0D1DYD5). Kind of assay: ACCase enzymatic assay (coupled PK/LDH, NADH OD340). It counts as biochemical. Conditions: Table 1A; values marked a are a result of two or more experiments; read-out: ACCase Inhibitory Activity IC50. The procedure:
Ustilago maydis acetyl CoA carboxylase (ACCase) was cloned, expressed, and purified as described (Weatherly et al, Biochem. J., 2004) and the test compounds were tested in a 96-well plate format. Primary in vitro screening consisted of obtaining dose response data at 100, 33, 10, and 1 μM inhibitor. Actives in the primary screen were re-tested to establish IC50 values.
Direct detection of the conversion of acetyl CoA to malonyl CoA by ACCase was not feasible, but during this process ATP is converted to ADP which allowed for detection through a standard reaction coupling with ADP recycling to the oxidation of NADH. Thus, ACCase activity was measured via kinetic OD340 measurements of the conversion of NADH to NAD in a coupled reaction involving the conversion of phosphoenolpyruvate (PEP) to lactate.
The complete 200 ul reaction mixture contained 52.5 mM HEPES (pH8), 2.625 mM MgCl2, 1 mM ATP, 0.525 mM DTT, 11 mM NaHCO3, 1% DMSO with or without inhibitor, 1× pyruvate kinase/lactate dehydrogenase (PK/LDH), 0.3 mM NADH, 0.5 mM PEP, and 5 μg ACCase. The reactions were incubated at 30° C. for 10 minutes and then initiated by the addition of 0.33 mM acetyl CoA. The initiated reactions were read immediately via plate reader at OD340 and kinetic readings were acquired every 20 s for 15 minutes while keeping the temperature at 30° C.
A slope of the kinetic curve was determined by using the 2 to 7 minute data which was then calculated as percent inhibition relative to the no inhibitor control.
The primary screens were conducted in duplicate and the IC50's conducted in triplicate. Averages were reported along with standard deviation calculation to generate error bars.
Each plate contained its own controls and consisted of a DMSO only control, 5-fold titration series of soraphen from 2 μM to 3.2 nM, and an ADP coupled reaction control.

A further assay concerns Diplodia maydis. Kind of assay: Fungal growth inhibition assay, Diplodia maydis. It counts as cell-based. As to conditions: 48 hours, read-out: D. maydis % growth inhibition at 48 hours. The procedure: as §1
Spore isolation for D. maydis: A 3-4 week old PDA (pre-mix) plate was removed from 26° C. incubator with a light/dark 12 hour cycle and the mycelia were treated with 6-7 ml of sterile distilled water, scraped into a sterile petri dish, and smashed to open the pycnidia. The spores were then collected in a sterile filter bowl containing a fluted piece of filter paper and poured into a conical tube.
as §2, §3, §4

In a further assay the test system is Phytophthora capsici. Kind of assay: Fungal growth inhibition assay, Phytophthora capsici. It counts as cell-based. As to conditions: 48 hours, read-out: P. capsici % growth inhibition at 48 hours.
Excerpt: as §1
Spore isolation for P. capsici: Three to five days prior to the assay a 2-3 week old V8 (17%)+CaCO3 (3 g/L)+20 g agar plate was removed from a dark 25° C. incubator and cut up into small chunks. One plate was separated into two deep well plates and rinsed with sterile distilled water three times. The cut up pieces were incubated under light in a sterile filter hood with 25 ml of sterile distilled water. On the day of the assay the water was removed and 5-7 ml of fresh sterile distilled water was added. One plate was incubated at 4° C. for 45-60 minutes and then placed at room temperature for about 45-60 minutes. The spores were collected in a sterile filter bowl containing a fluted piece of filter paper. The spores were vortexed in a conical tube for 30-60 seconds to remove the flagella of the zoospores after isolation.
as §2, §3, §4

SMILES strings stand for the structures. pIC50: −log10 of the molar value.

Ustilago maydis acetyl CoA carboxylase (ACCase), sequence (A0A0D1DYD5 1-2185): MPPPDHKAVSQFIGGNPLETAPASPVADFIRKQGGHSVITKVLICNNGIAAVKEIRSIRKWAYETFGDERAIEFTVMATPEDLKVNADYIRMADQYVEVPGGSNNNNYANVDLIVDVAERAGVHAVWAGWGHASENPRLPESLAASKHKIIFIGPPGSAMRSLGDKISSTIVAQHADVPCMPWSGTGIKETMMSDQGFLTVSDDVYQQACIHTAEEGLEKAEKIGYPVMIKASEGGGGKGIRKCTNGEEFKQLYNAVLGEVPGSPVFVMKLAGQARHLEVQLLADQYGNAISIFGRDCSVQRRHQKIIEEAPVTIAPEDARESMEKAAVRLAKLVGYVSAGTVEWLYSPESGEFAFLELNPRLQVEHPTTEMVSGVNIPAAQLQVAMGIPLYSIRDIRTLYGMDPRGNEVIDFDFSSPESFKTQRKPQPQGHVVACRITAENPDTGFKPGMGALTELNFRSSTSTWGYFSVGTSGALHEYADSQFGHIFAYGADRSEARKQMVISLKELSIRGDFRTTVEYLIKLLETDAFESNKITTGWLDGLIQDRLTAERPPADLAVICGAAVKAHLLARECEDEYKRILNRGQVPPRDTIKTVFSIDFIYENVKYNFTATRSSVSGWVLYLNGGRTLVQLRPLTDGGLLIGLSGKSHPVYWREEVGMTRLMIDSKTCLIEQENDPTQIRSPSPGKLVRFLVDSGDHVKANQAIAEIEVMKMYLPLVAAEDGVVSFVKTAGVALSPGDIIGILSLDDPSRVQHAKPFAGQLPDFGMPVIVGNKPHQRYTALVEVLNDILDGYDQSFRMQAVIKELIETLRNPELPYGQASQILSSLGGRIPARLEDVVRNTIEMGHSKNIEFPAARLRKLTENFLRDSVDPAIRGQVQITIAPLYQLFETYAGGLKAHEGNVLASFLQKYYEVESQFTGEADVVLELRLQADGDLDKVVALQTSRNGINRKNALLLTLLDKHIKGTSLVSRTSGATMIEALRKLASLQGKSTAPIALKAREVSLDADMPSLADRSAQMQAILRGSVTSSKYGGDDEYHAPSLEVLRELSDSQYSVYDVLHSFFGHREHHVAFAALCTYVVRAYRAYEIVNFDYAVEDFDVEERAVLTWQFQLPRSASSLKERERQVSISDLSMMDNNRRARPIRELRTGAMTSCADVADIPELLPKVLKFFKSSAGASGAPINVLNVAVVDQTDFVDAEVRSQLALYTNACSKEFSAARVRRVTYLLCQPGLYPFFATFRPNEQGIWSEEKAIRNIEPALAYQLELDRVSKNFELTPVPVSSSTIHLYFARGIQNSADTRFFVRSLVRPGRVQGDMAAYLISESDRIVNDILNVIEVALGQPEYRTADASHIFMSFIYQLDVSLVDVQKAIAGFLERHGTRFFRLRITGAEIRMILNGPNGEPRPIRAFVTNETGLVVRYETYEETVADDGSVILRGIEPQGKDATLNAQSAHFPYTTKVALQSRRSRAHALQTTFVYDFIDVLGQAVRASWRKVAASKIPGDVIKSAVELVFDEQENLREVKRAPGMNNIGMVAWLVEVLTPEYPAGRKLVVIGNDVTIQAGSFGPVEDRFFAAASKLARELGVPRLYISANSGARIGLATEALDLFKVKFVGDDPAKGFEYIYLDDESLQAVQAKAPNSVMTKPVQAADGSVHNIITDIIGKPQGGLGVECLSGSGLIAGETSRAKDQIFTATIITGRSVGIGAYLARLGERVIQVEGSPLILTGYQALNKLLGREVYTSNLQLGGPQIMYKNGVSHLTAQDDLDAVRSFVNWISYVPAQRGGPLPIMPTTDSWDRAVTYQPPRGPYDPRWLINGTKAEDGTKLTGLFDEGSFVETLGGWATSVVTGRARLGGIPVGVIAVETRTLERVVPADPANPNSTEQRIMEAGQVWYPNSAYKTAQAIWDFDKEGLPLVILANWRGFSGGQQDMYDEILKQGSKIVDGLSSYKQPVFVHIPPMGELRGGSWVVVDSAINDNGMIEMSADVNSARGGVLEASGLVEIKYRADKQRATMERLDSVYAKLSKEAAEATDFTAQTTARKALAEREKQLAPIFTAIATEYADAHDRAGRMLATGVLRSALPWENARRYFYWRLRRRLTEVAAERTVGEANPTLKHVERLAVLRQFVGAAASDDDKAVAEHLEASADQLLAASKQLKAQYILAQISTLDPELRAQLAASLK

Consider `N#Cc1c(-c2ccc(Cl)cc2)cc(-c2cccs2)nc1SC(C(=O)O)c1ccccc1` (centres unmarked) [Formula Ia-i, 2-((4-(4-chlorophenyl)-3-cyano-6-(thiophen-2-yl)pyridin-2-yl)thio)-2-phenylacetic acid], for which, in assay [1], the inhibition at 2 ppm stood at 28%, the inhibition at 10 ppm turned out to be 72% and the inhibition at 50 ppm stood at 92%. In addition, the pIC50 in assay [2] was 6.43. For the same compound, in the assay with Diplodia maydis, the inhibition at 2 ppm amounted to 3%, the inhibition at 10 ppm was determined as 57% and the inhibition at 50 ppm stood at 65%.

On to `N#Cc1c(-c2ccccc2)cc(-c2cccs2)nc1SC(C(=O)O)c1ccccc1` (centres unmarked) [Formula Ia-iv, 2-((3-cyano-4-phenyl-6-(thiophen-2-yl)pyridin-2-yl)thio)-2-phenylacetic acid], for which, in assay [1], the inhibition at 2 ppm was found to be 5%, the inhibition at 10 ppm worked out at 41% and the inhibition at 50 ppm worked out at 76%. In addition, the pIC50 in assay [2] is 6.31. Besides, in the assay with Phytophthora capsici, the inhibition at 2 ppm was 0%, the inhibition at 10 ppm was determined as 11% and the inhibition at 50 ppm is 90%.

In the case of `COc1ccc(-c2cc(C(F)(F)F)c(C#N)c(SC(C(=O)O)c3ccccc3)n2)cc1OC` (centres unmarked) [Formula Ia-ix, 2-((3-cyano-6-(3,4-dimethoxyphenyl)-4-(trifluoromethyl)pyridin-2-yl)thio)-2-phenylacetic acid], in assay [1], the inhibition at 2 ppm amounted to 5%, the inhibition at 10 ppm turned out to be 17% and the inhibition at 50 ppm turned out to be 72%. In addition, in assay [2], the pIC50 was 5.80. Moreover, in the assay on Phytophthora capsici, the inhibition at 2 ppm was 10%, the inhibition at 10 ppm was determined as 39% and the inhibition at 50 ppm amounted to 34%. Besides, in the assay on Diplodia maydis, the inhibition at 2 ppm came to 32%, the inhibition at 10 ppm is 37% and the inhibition at 50 ppm was 70%.

For the compound `COc1ccc(-c2cc(-c3cccs3)nc(SC(C(=O)O)c3ccccc3)c2C#N)cc1` (centres unmarked) [Formula Ia-v, 2-((3-cyano-4-(4-methoxyphenyl)-6-(thiophen-2-yl)pyridin-2-yl)thio)-2-phenylacetic acid], in assay [1], the inhibition at 2 ppm is 0%, the inhibition at 10 ppm stood at 32% and the inhibition at 50 ppm is 79%. Besides, the pIC50 in assay [2] is 6.92. Also, in the assay with Diplodia maydis, the inhibition at 2 ppm came to 0%, the inhibition at 10 ppm came to 61% and the inhibition at 50 ppm came out at 52%.

For the compound `N#Cc1c(C(F)(F)F)cc(-c2ccco2)nc1SC(C(=O)O)c1ccccc1` (centres unmarked) [Formula Ia-xi, 2-((3-cyano-6-(furan-2-yl)-4-(trifluoromethyl)pyridin-2-yl)thio)-2-phenylacetic acid], the pIC50 in assay [2] is 5.27. In the assay with Diplodia maydis, the inhibition at 2 ppm was found to be 38%, the inhibition at 10 ppm came out at 54% and the inhibition at 50 ppm worked out at 82%.

For `N#Cc1c(SC(C(=O)O)c2ccccc2)nc2c(c1-c1cccs1)CCCC2` (centres unmarked) [Formula Ia-xiii, 2-((3-cyano-4-(thiophen-2-yl)-5,6,7,8-tetrahydroquinolin-2-yl)thio)-2-phenylacetic acid], in assay [2], the pIC50 was 6.56. For the same compound, in the assay with Diplodia maydis, the inhibition at 2 ppm stood at 20%, the inhibition at 10 ppm came to 13% and the inhibition at 50 ppm was 40%.

Regarding `Cc1ccc(-c2cc(-c3cccs3)nc(SC(C(=O)O)c3ccccc3)c2C#N)cc1` (centres unmarked) [Formula Ia-xxi, 2-((3-cyano-6-(thiophen-2-yl)-4-(p-tolyl)pyridin-2-yl)thio)-2-phenylacetic acid], in assay [2], the pIC50 was 6.45.

In the case of `N#Cc1c(-c2ccc(F)cc2)cc(-c2cccs2)nc1SC(C(=O)O)c1ccccc1` (centres unmarked) [Formula Ia-xxii, 2-((3-cyano-4-(4-fluorophenyl)-6-(thiophen-2-yl)pyridin-2-yl)thio)-2-phenylacetic acid], the pIC50 in assay [2] is 6.25.

On to `N#Cc1c(-c2ccc(Br)cc2)cc(-c2cccs2)nc1SC(C(=O)O)c1ccccc1` (centres unmarked) [Formula Ia-xxiii, 2-((4-(4-bromophenyl)-3-cyano-6-(thiophen-2-yl)pyridin-2-yl)thio)-2-phenylacetic acid], for which the pIC50 in assay [2] was 6.67.

With `N#Cc1c(-c2cccs2)cc(-c2ccco2)nc1SC(C(=O)O)c1ccccc1` (centres unmarked) [Formula Ia-xxiv, 2-((3-cyano-6-(furan-2-yl)-4-(thiophen-2-yl)pyridin-2-yl)thio)-2-phenylacetic acid], the pIC50 in assay [2] was 6.02.

Regarding `CCC(Sc1nc(-c2cccs2)cc(-c2ccc(OC)cc2)c1C#N)C(=O)O` (centres unmarked) [Formula Ia-xxix, 2-((3-cyano-4-(4-methoxyphenyl)-6-(thiophen-2-yl)pyridin-2-yl)thio)butanoic acid], the pIC50 in assay [2] is 6.95.

As for `N#Cc1c(-c2ccco2)cc(-c2ccco2)nc1SC(C(=O)O)c1ccccc1` (centres unmarked) [Formula Ia-xxv, 2-((3-cyano-4,6-di(furan-2-yl)pyridin-2-yl)thio)-2-phenylacetic acid], the pIC50 in assay [2] is 5.39.

Regarding `COc1ccc(-c2c(C#N)c(SC(C(=O)O)c3ccccc3)nc3c2CCCC3)cc1` (centres unmarked) [Formula Ia-xxvi, 2-((3-cyano-4-(4-methoxyphenyl)-5,6,7,8-tetrahydroquinolin-2-yl)thio)-2-phenylacetic acid], the pIC50 in assay [2] is 6.25.

Turning to `N#Cc1c(SC(C(N)=O)c2ccccc2)nc2c(c1-c1cccs1)CCCC2` (centres unmarked) [Formula Ib-i, 2-((3-cyano-4-(thiophen-2-yl)-5,6,7,8-tetrahydroquinolin-2-yl)thio)-2-phenylacetamide], the pIC50 in assay [2] is 6.15.

With `COc1ccc(-c2cc(-c3cccs3)nc(SC(C(N)=O)c3ccccc3)c2C#N)cc1` (centres unmarked) [Formula Ib-ii, 2-((3-cyano-4-(4-methoxyphenyl)-6-(thiophen-2-yl)pyridin-2-yl)thio)-2-phenylacetamide], the pIC50 in assay [2] was less than 4.48.

Consider `COc1ccc(-c2cc(-c3cccs3)nc(SC(C(=O)NO)c3ccccc3)c2C#N)cc1` (centres unmarked) [Formula Ib-iii, 2-((3-cyano-4-(4-methoxyphenyl)-6-(thiophen-2-yl)pyridin-2-yl)thio)-N-hydroxy-2-phenylacetamide], for which, in assay [2], the negative-log IC50 (pIC50) was 6.05.

Consider `CO[C@H]1CCCC[C@@H](c2ccccc2)OC(=O)[C@@H](C)[C@@]2(O)O[C@H]([C@@H](C)[C@H](O)[C@H]2OC)[C@@H](C)/C=C/[C@H]1OC` [Soraphen, reference compound], for which the pIC50 in assay [2] was 7.34.

As usually defined, the inhibition is the relative decrease from the control value, in per cent. By pIC50 is commonly meant the IC50 on a negative log10 scale, so that one unit is a factor of ten.

Source of the values: US10548313B2, “Acetyl-CoA carboxylase modulators” (Monsanto Technology LLC, priority 2013, dated 2020).
